Assay results from US6656921B1, “Use of zinc hyaluronate against peptic ulcer” (Richter Gedeon Vegyeszeti Gyar RT., priority 1997, dated 2003).
Where “and” joins values, the source holds several entries; their conditions need not be identical. Equal values may be shown once. Marks after values point to notes of the source that are not given here.

Tests used:
Helicobacter pylori = assay: Activity against Helicobacter pylori (agar MIC); assay type: cell-based
Procedure: These experiments were performed on Helicobacter pylori strains cultivated from the gastric biopsy samples of patients suffering from various ulcers. An 1% by (w/w) solutions of De-Nol (colloidal bismuth subcitrate) was used as reference substance. An agar medium supplemented with 10% of bovine blood was employed. Plates containing no substance to be tested were used as controls. The plates inoculated were incubated at 37° C. in a gas atmosphere containing 5% of oxygen and 7-8% of carbon dioxide for 3-5 days. Minimum inhibitory concentration (MIC) value was considered to be the lowest concentration of substances totally inhibiting the growth (propagation) of well-propagating bacteria on control plates.

[1] = tested on: indomethacin induced intestinal ulcer; assay: Inhibition of indomethacin induced intestinal ulcer (tensile strength); assay type: in vivo, rat; settings: for Tensile strength of intestinal wall as index of ulceration Hgmm ± S.E.M.: indomethacin 15 mg/kg p.o.; for Effect against indomethacin induced intestinal ulceration (in words): rat, in vivo
Procedure: Female, RG-Wistar, non-fasted rats weighing between 120-150 g were used. The intestinal ulcer was induced by oral administration of 15 mg/kg indomethacin. Test compound was given to animals orally 3 times over 48 hours in 24 hour equal intervals. The first introduction of test compound preceded the single indomethacin treatment by 60 minutes. Animals were killed 72 hours after the first administration of the test compound. Control animals received vehicle instead of test compound and normal rats mean non-fasted, non-treated rats. The small intestine segment from pylorus to cecum was removed, placed into 0.9% (w/v) sodium chloride solution at 37° C. and it was connected with a BP recorder through one of its ends via a polyethylene cannula. After ligating both ends of the prepartum the pressure was increased inside the intestine until air bubbles appeared at the weakened site of the intestinal wall. This pressure is expressed in Hgmm and is denoted tensile strength (TS).

[2] = tested on: indomethacin induced gastric lesion; assay: Inhibition of indomethacin induced gastric lesion; assay type: in vivo, rat; settings: for ED50 (dose protecting the stomach by 50% from indomethacin): p.o.
Procedure: 2. Inhibition of Indomethacin Induced Gastric Lesion Female RG Wistar rats weighing between 120-150 g were used. Before the experiments animals were fasted for 24 hours but received water ad libitum. Test compounds were given orally, 30 minutes later the animals were treated subcutaneously with indomethacin at a dose of 40 mg/kg. Four hours after the irritating indomethacin administration the animals were killed by cervical dislocation. The stomachs were removed, opened along the greater curvature and the hemorrhagic lesions were counted on the glandular stomach.
ED50 value represents the dose which protects the stomach by 50 % from the damaging effect of indomethacin.

[3] = tested on: acidified ethanol induced gastric lesion; assay: Inhibition of acidified-ethanol induced gastric lesions; assay type: in vivo, rat; settings: for Inhibition / Lesion length/stomach mm ± S.E.M.: 30 min before acidified ethanol
Procedure: Female RG-Wistar rats weighing between 120-150 g were used. Before experiments animals were fasted for 24 hours but received water ad libitum.
Experiments were carried out according to the technique similar to that described by A. Robert [Gastroenterology 77, […] (1979)].
Acidified ethanol (mixture of 50 ml of abs. ethanol and 1 ml of concentrated HCI) was used as strong irritants. Dose of acidified ethanol was 0.5 ml/100 g body weight with intragastric administration. Test compounds were given orally 30 minutes before the acidified ethanol challenge. When the duration of action of test compound was studied test material was administered 60 or 120 minutes earlier to the irritating effect induced by acidified-ethanol effect. One hour after the acidified ethanol treatment rats were sacrificed by cervical dislocation. Stomachs were removed and opened along the greater curvature and mildly washed down. The longitudinal hemorrhagic lesions were assayed by length.
ED50 value was defined as the dose that gave a 50% decrease in ulcer index.

[4] = tested on: gastrointestinal motility; assay: Gastrointestinal motility in the charcoal propulsion test; assay type: in vivo, rat; settings: 100 mg/kg p.o.
Procedure: Experiments were performed on female, RG-Wistar rats weighing 120-140 g, which were fasted for 24 hours but received water ad libitum.
The experimental procedure was carried out according to the technique similar to that described of P. A. Janssen and A. J. Jageneau [J. Pharm. Pharmacel. 9, 381 (1957)].
Test compounds were given orally at a dose of 100 mg/kg. Control animals received physiological saline solution instead of test compounds. 30 minutes later, the 5% (w/v) charcoal suspension was administered orally at a volume of 0.5 ml/animal. 60 minutes after the charcoal treatment the animals were sacrificed by cervical dislocation. The intestine from pylorus to cecum was removed, its lengths measured along with the distance traversed by the charcoal meal.
Motility was expressed as the ratio of length of charcoal suspension to the length of the whole intestine.

[5] = tested on: acetic acid induced chronic gastric ulcer; assay: Inhibition of acetic acid induced chronic gastric ulcer; assay type: in vivo, rat; settings: for Ulcerated area mm^2 ± S.E.M.: day 5 to 14 after surgery
Procedure: Female, RG Wistar rats weighing between 120-150 g were used. Before the surgery animals were deprived of food for 24 hours but received water ad libitum. The chronic gastric ulcer was induced by the injection of 25 μl/animal of 20% (v/v) acetic acid into the gastric wall under light ether anaesthesia according to the method similar to that described by Takagi et al. (1969). The oral treatment with the test compounds was started five days after the surgery and continued in a once-a-day regimen up to the 14th day. The animals were killed on the 15th day and their stomachs were dissected. The severity of ulceration was evaluated by the measurement of the diameter of the ulcers and the area affected was calculated. The healing effect was expressed as differences in percentage between the control and test group values.

[6] = 40 mg/kg p.o., 30 min before indomethacin
[7] = 80 mg/kg p.o., 30 min before indomethacin
[8] = 160 mg/kg p.o., 30 min before indomethacin

For zinc hyaluronate, which “In vitro activity against Helicobacter pylori (in words)” value (Helicobacter pylori) is on record?
Its value is “commensurable with activity of De-Nol”.

What about the MIC (Helicobacter pylori; strain 822/96, agar medium with 10% bovine blood, 37° C., 3-5 days) of the same substance?
The MIC was 500 µg/mL.

For “zinc hyaluronate [Zinc hyaluronate (II)]”, which “Tensile strength of intestinal wall as index of ulceration Hgmm ± S.E.M.” value ([1]; 3 × 1 mg/kg p.o.) is on record?
Its value is 27.9 ± 8.9 Hgmm.

And the “Tensile strength of intestinal wall as index of ulceration Hgmm ± S.E.M.” value ([1]; 3 × 10 mg/kg p.o.)?
Its value is 41.3 ± 10.9 Hgmm.

And the “Tensile strength of intestinal wall as index of ulceration Hgmm ± S.E.M.” value ([1]; 3 × 100 mg/kg p.o.)?
Its value is 48.8 ± 11.3 Hgmm.

And the “Increase of tensile strength of intestinal wall compared to the control group” value ([1]; doses of 10 mg/kg and 100 mg/kg)?
Its value is “almost three times”.

What about the “Effect against indomethacin induced intestinal ulceration (in words)” value [1] of the same substance?
Its value is “had a protective effect on the intestinal wall”.

And the Inhibition ([2]; 1.0 mg/kg p.o., 30 min before indomethacin)?
Its Inhibition is 31.8%.

What about the “Lesion number/stomach ± S.E.M.” value ([2]; 1.0 mg/kg p.o., 30 min before indomethacin 40 mg/kg s.c.) of the same substance?
The value was 8.8 ± 2.1.

And the Inhibition ([2]; 10.0 mg/kg p.o., 30 min before indomethacin)?
Its Inhibition is 56.5%.

What about the “Lesion number/stomach ± S.E.M.” value ([2]; 10.0 mg/kg p.o., 30 min before indomethacin 40 mg/kg s.c.) of the same substance?
The value was 7.4 ± 1.9.

What about the Inhibition ([2]; 100 mg/kg p.o., 30 min before indomethacin) of the same substance?
The Inhibition was 78.2%.

What about the “Lesion number/stomach ± S.E.M.” value ([2]; 100 mg/kg p.o., 30 min before indomethacin 40 mg/kg s.c.) of the same substance?
Its value is 3.7 ± 0.8.

What about the “ED50 (dose protecting the stomach by 50% from indomethacin)” value [2] of the same substance?
Its value is 5.8 mg/kg.

What about the Inhibition ([3]; 10 mg/kg p.o.) of the same substance?
Its Inhibition is 42.7%.

And the “Lesion length/stomach mm ± S.E.M.” value ([3]; 10 mg/kg p.o.)?
Its value is 48.0 ± 10.9 mm.

What about the Inhibition ([3]; 25 mg/kg p.o.) of the same substance?
The Inhibition was 77.3%.

And the “Lesion length/stomach mm ± S.E.M.” value ([3]; 25 mg/kg p.o.)?
The value was 19.0 ± 4.4 mm.

And the Inhibition ([3]; 50 mg/kg p.o.)?
Its Inhibition is 84.1%.

What about the “Lesion length/stomach mm ± S.E.M.” value ([3]; 50 mg/kg p.o.) of the same substance?
Its value is 13.3 ± 4.8 mm.

And the Inhibition ([3]; 100 mg/kg p.o.)?
Its Inhibition is 98.1%.

What about the “Lesion length/stomach mm ± S.E.M.” value ([3]; 100 mg/kg p.o.) of the same substance?
The value was 1.6 ± 0.5 mm.

And the “ED50 (dose giving 50% decrease in ulcer index)” value ([3]; p.o., 30 min pretreatment)?
The value was 11.1 mg/kg.

What about the “Effect on the intestinal motility (in words)” value [4] of the same substance?
Its value is “absence of change in activity”.

And the “Propulsion of charcoal suspension mm ± S.E.M.” value ([4]; 30 min before charcoal, 60 min after charcoal, listed as Zink-hyaluronate (II))?
The value was 610 ± 3.9 mm.

What about the “Ratio of charcoal suspension to the whole intestinal part” value ([4]; listed as Zink-hyaluronate (II)) of the same substance?
The value was 0.77 ± 0.04.

And the “Ulcerated area mm^2 ± S.E.M.” value ([5]; 0.01 mg/kg p.o. once a day)?
Its value is 6.2 ± 1.0 mm^2.

And the “Ulcerated area mm^2 ± S.E.M.” value ([5]; 0.1 mg/kg p.o. once a day)?
Its value is 5.8 ± 1.1 mm^2.

What about the “Ulcerated area mm^2 ± S.E.M.” value ([5]; 1.0 mg/kg p.o. once a day) of the same substance?
The value was 3.7 ± 1.6* mm^2 and 3.7 ± 0.6* mm^2.

What about the “Effect on healing of acetic acid induced chronic ulcer (in words)” value ([5]; rat, in vivo) of the same substance?
Its value is “accelerated the healing”.

With sucralfate [reference compound] as the substance, how does the “Effect against indomethacin induced intestinal ulceration (in words)” value [1] read?
The value was “totally ineffective”.

What about the Inhibition [2, 6] of the same substance?
The Inhibition was 14.8%.

And the “Lesion number/stomach ± S.E.M.” value [2, 6]?
The value was 14.4 ± 4.8.

What about the Inhibition [2, 7] of the same substance?
Its Inhibition is 62.1%.

What about the “Lesion number/stomach ± S.E.M.” value [2, 7] of the same substance?
The value was 6.4 ± 2.2.

And the Inhibition [2, 8]?
Its Inhibition is 82.8%.

And the “Lesion number/stomach ± S.E.M.” value [2, 8]?
The value was 2.9 ± 1.4.

What about the “ED50 (dose protecting the stomach by 50% from indomethacin)” value [2] of the same substance?
The value was 74.9 mg/kg.

And the Inhibition ([3]; 50 mg/kg p.o.)?
Its Inhibition is 0%.

What about the “Lesion length/stomach mm ± S.E.M.” value ([3]; 50 mg/kg p.o.) of the same substance?
The value was 64.0 ± 25.9 mm.

What about the Inhibition ([3]; 100 mg/kg p.o.) of the same substance?
The Inhibition was 75.3%.

What about the “Lesion length/stomach mm ± S.E.M.” value ([3]; 100 mg/kg p.o.) of the same substance?
The value was 15.0 ± 5.5 mm.

And the Inhibition ([3]; 400 mg/kg p.o.)?
The Inhibition was 87.7%.

What about the “Lesion length/stomach mm ± S.E.M.” value ([3]; 400 mg/kg p.o.) of the same substance?
Its value is 7.5 ± 3.0 mm.

What about the “Ulcerated area mm^2 ± s.e.m.” value ([5]; 100 mg/kg p.o. once a day) of the same substance?
Its value is 6.7 ± 1.5 mm^2.

And the “Ulcerated area mm^2 ± s.e.m.” value ([5]; 500 mg/kg p.o. once a day)?
Its value is 4.3 ± 1.3* mm^2.

What about the “Effect on healing %” value ([5]; 500 mg/kg p.o. once a day, ↓healing slowed down, ↑healing accelerated) of the same substance?
Its value is 53%.
